# Like-named read-outs stand apart in the source and are kept apart here.
# B1: Glutaredoxin: E. coli glutaredoxin with NADPH, reduced glutathione and glutathione reductase (NGS) (protein, UniProt P68688 1-85, looked up)
# Glutaredoxin 1: MQTVIFGRSGCPYCVRAKDLAEKLSNERDDFQYQYVDIRAEGITKEDLQQKAGKPVETVPQIFVDQQHIGGYTDFAAWVKENLDA
# modifications: with NADPH, glutathione, glutathione reductase
# B2: α-lactalbumin: purified milk allergen (Sigma) (protein, UniProt P00711 20-142, looked up)
# Alpha-lactalbumin: EQLTKCEVFRELKDLKGYGGVSLPEWVCTTFHTSGYDTQAIVQNNDSTEYGLFQINNKIWCKDDQNPHSSNICNISCDKFLDDDLTDDIMCVKKILDKVGINYWLAHKALCSEKLDQWLCEKL
# Experiments:
# Glutenin 30-40 kDa = experiment: Reductant specificity of glutenins, mBBr/SDS-PAGE; assay type: biochemical, Triticum durum
# Method: (§1) For isolation of insoluble storage proteins, semolina (0.2 g) was extracted sequentially with 1 ml of the following solutions for the indicated times at 25° C.: (1) 50 mM Tris-HCl, pH 7.5 (20 min); (2) 70% ethanol (2 hr); and (3) 0.1 M acetic acid (2 hr). During extraction, samples were placed on an electrical rotator and, in addition, occasionally agitated with a vortex mixer. After extraction with each solvent, samples were centrifuged (12,000 rpm for 5 min) in an Eppendorf microfuge and, supernatant fractions were saved for analysis. In between each extraction, pellets were washed with 1 ml of water, collected by centrifugation as before and the supernatant wash fractions were discarded. By convention, the fractions are designated: (1) albumin/globulin; (2) gliadin; and (3) glutenin.
# (§2) Reactions were carried out in 100 mM Tris-HCl buffer, pH 7.9. As indicated, 0.7 μg NTR and 1 μg thioredoxin (both from E. coli unless specified otherwise) were added to 70 μl of this buffer containing 1 mM NADPH and 10 μg of target protein.
# (§3) SDS-polyacrylamide electrophoresis of the mBBr-derivatized samples was performed in 15% gels at pH 8.5 as described by Laemmli, U. K. (1970), Nature 227:680-685. Gels of 1.5 mm thickness were developed for 16 hr. at a constant current of 9 mA.
# (§4) The Polaroid negatives of fluorescent gels and prints of wet protein stained gels were scanned with a laser densitometer (Pharmacia-LKB UltroScan XL). Fluorescence was quantified by evaluating peak areas after integration with GelScan XL software.
# Glutenin 60-110 kDa = experiment: Reductant specificity of glutenins, mBBr/SDS-PAGE; assay type: biochemical, Triticum durum
# Method: as §1, §2, §3, §4
# [1] = tested on: dogs sensitized to cow's milk; experiment: Skin tests, ED50 and relative allergenicity (Example 44); assay type: in vivo, dog; details: all dogs tested
# Method: Reduction and Blocking of Protein Disutfide Bond. […] Following gel filtration with a Sephadex G-25 column (Amersham Pharmacia) to remove reductants, the reduced protein (less than 0.25 mg/ml) was incubated either without addition or with 10 mM oxidized glutathione (GSSG) or 10 mM cystamine for 3 days on ice. The mixtures were then subjected to a second gel filtration on a Sephadex G-25 column to remove excess GSSG and cystamine. If necessary, the resultant preparations were concentrated by ultrafiltration with Centricon YM-3 filter (Millipore). Heat treatment of NTS-reduced BLG was carried out for 1 hour at 55° C. after reduction at 4° C. overnight. Raw cow's milk (47 mg protein/ml) was reduced with 50 mM DTT and blocked with cystamine and GSSG as described above for BLG. Heated milk was prepared by incubation for 1 hour at 55° C. and gel filtration with A Sephadex G-25 column.
# Skin Tests. The background of the dog colony, immunization schedule and procedure for skin testing have been previously described in Examples 36-39 and also in del Val et al., 1999, Buchanan et al., 1997, Ermel et al., 1997, Frick and Brooks, 1983, herein incorporated by reference. Here, 3 litters of the 7th generation designated 7FA, 7FB and 7FC were immunized with commercial preparations (Bayer) of cow's milk, soybean and other food extracts (wheat or barley and walnut, Brazil nut and peanut) and also ragweed pollen. BLG samples for testing were prepared in half-log dilutions with PBS; 100 μL of each dilution was injected intradermally on the dog's abdomen.
# Estimation of Relative Allergenicity. Wheal area of each spot was plotted by the Lineweaver-Burk double-reciprocal plot to obtain the maximum wheal area. The log of the dose of BLG that effects a half-maximum of wheal area with the control sample, termed Effective Dose 50 (ED50), was calculated and used for statistical analysis. For simplification, ratio of the reciprocal of ED50 to that of the control sample is presented below as relative allergenicity.
# allergic dogs = experiment: Skin tests with giant ragweed pollen extract; assay type: in vivo, dog
# Method: Reduction of pollen proteins by the thioredoxin system. Giant ragweed allergen extract, purchased from Bayer Inc., was analyzed for protein by the Bradford assay using bovine γ-globulin as standard (Wong, J. H. et al. (1995) “Thioredoxin and seed proteins” Methods Enzymol 252:228-240). […] The extent of reduction was determined by the SDS-PAGE/monobromobimane procedure as previously described above and also as described by Wong et al. (Ibid.). Gels were visualized under U.V.
# Skin tests. Procedures to measure the type I hypersensitivity reaction by skin tests in allergic […] were substantially the same to those previously described above (see, Examples 36, 37 and 39). In brief, Evans blue dye 0.5% (0.2 ml/kg) was injected intravenously 5 minutes prior to skin testing. Aliquots of 0.1 ml of pollen allergen extract were injected intradermally on ventral abdominal skin in half-log dilutions. Skin tests were read blindly by the same experienced blinded observer scoring two perpendicular diameters for each blue spot. Appropriate negative controls (diluted in PBS) were included for each animal tested.
# Data analysis. The statistical significance of the skin test results showing the thioxedoxin-linked mitigation of pollen allergens was determined by paired one-tailed, t-tests. […] The t-tests were completed for each dilution series (0.07 to 219 ng allergen) at 0.05 level of significance on all sensitive dogs (df≅8).
# trypsin = experiment: Trypsin proteolysis of purified milk allergens; assay type: biochemical; details: 10 μg NTS reduced protein, 2 μg trypsin
# Method: The analysis of the reduction was done using the mBBr/SDS-PAGE techniques. Further in this study, when 10 μg of an NTS reduced purified milk allergen protein, β-lactoglobulin (Sigma Chemical Co.), was treated with 2 μg of trypsin, proteolysis was 100% as compared with only 50% for the identically trypsin treated oxidized β-lactoglobulin. […] However, 10 μg of purified α-lactalbumin reduced by the NTS was proteolyzed 80% by trypsin. Also 10 μg of α-lactalbumin reduced by 0.8 μg of thioredoxin and 0.5 mM DTT was 100% proteolyzed by 2 μg of trypsin.
molecule,measurement,setting,value
"N[C@@H](CCC(=O)N[C@@H](CS)C(=O)NCC(=O)O)C(=O)O [Glutathione, glutathione, reference compound]","Glutenin, % Relative Reduction, 30-40 kDa",Glutenin 30-40 kDa,29%
same,"Glutenin, % Relative Reduction, 60-110 kDa",Glutenin 60-110 kDa,31%
NTS-reduced & heated: BLG heated for 1 hour at 55° C. following NTS-reduction at 4° C. overnight,"times less allergenic than native (control) BLG, from ED50",[1],about 5 times
NTS/CYM: BLG treated with cystamine following NTS-reduction,"times less allergenic than native (control) BLG, from ED50",[1],about 2.5 times
NTS/GSSG: BLG treated with GSSG following NTS-reduction,"times less allergenic than native (control) BLG, from ED50",[1],about 2.5 times
Thioredoxin: E. coli thioredoxin reduced by NADPH and NTR,"Glutenin, % Relative Reduction, 30-40 kDa",Glutenin 30-40 kDa; thioredoxin (NTS) = 100,100%
same,"Glutenin, % Relative Reduction, 60-110 kDa",Glutenin 60-110 kDa; thioredoxin (NTS) = 100,100%
same,Mitigation of skin test response,allergic dogs; Allergen 0.07 ng,Not Signiticant
same,Mitigation of skin test response,allergic dogs; Allergen 0.22 ng,Not Significant
same,Mitigation of skin test response,allergic dogs; Allergen 0.66 ng,Significant
same,Mitigation of skin test response,allergic dogs; Allergen 2.2 ng,Significant
same,Mitigation of skin test response,allergic dogs; Allergen 6.6 ng,Significant
same,Mitigation of skin test response,allergic dogs; Allergen 22 ng,Significant
same,Mitigation of skin test response,allergic dogs; Allergen 66 ng,Significant
same,Mitigation of skin test response,"allergic dogs; Allergen 219 ng, paired one tail t test, P 0.05",Not Significant
B1,"Glutenin, % Relative Reduction, 30-40 kDa",Glutenin 30-40 kDa; thioredoxin (NTS) = 100,40%
same,"Glutenin, % Relative Reduction, 60-110 kDa",Glutenin 60-110 kDa; thioredoxin (NTS) = 100,50%
B2,proteolysis by trypsin,trypsin,80%
